According to patent EP1273297A1, “Vitamin E for the treatment of diseases in which the binding of the transcription factor NF-KB and/or AP-1 to promoter target sites has a beneficial effect (eg AIDS, cardiac infarction)” (Deutsches Krebsforschungszentrum Stiftung des öffentlichen …, priority 2001, dated 2003):

Tests used:
NF-κB [1] = assay: EMSA, nuclear extracts of J-27 T cells, binding to CD95L promoter NF-κB sites; format: cell-based; settings: J-27 nuclear extracts, PMA/ionomycin 2 h, 50 µM vitamin E added 1 h before induction (Fig. 3A)
Experimental: (§1) (A)^32P-labeled oligonucleotides containing the CD95L NF-κB (at the promoter -530 and -50 region) (Li-Weber et al., Eur. J. Immunol. 30 (2000), 661) and AP-1 (at the promoter +90 region) (Eichhorst et al., Mol. Cell. Biol. 20 (2000), 7826) binding sequences were analyzed by EMSA as described (Li-Weber et al., (2000). The EMSA probes had the following sequences: • CD95L NF-κB at-530: 5'-[…]-3' • CD95L NF-κB at-50: 5'-[…]-3' • CD95L AP-1 at +90: 5'-[…]-3'
(§2) Nuclear extracts were prepared from J-27 T cells either non-induced (-) or induced (+) for 2 h by PMA (10 ng/ml) and ionomycin (0.5 µM) in the absence (-) or presence (+) of 50 µM vitamin E (VE) (added 1 h before induction). The inducible complex corresponding to NF-κB and AP-1 were indicated. A NF-Y binding oligonucleotide 5'[…]-3' was used for equal loading of nuclear extracts.
(§3) It was investigated whether vitamin E affects NF-KB and AP-1 binding to the CD95L promoter target sites. Nuclear extracts were prepared from J-27 T cells stimulated in the presence or absence of vitamin E. The NF-κB and AP-1 binding sites contained in the CD95L promoter were used as probes in an electrophoretic-mobility-shift-assay (EMSA). Stimulation of T cell with PMA and ionomycin induced binding of nuclear factors to the NF-κB and AP-1 sites of the CD95L promoter (Fig. 3A). […]

AP-1 [2] = assay: EMSA, nuclear extracts of J-27 T cells, binding to CD95L promoter AP-1 site; format: cell-based; settings: J-27 nuclear extracts, PMA/ionomycin 2 h, 50 µM vitamin E added 1 h before induction (Fig. 3A)
Experimental: as §1, §2, §3

NF-Y = assay: EMSA control, constitutive transcription factor, NF-Y binding oligonucleotide; format: cell-based; settings: J-27 nuclear extracts, 50 µM vitamin E (Fig. 3A)
Experimental: as §2
It was investigated whether vitamin E affects NF-KB and AP-1 binding to the CD95L promoter target sites. Nuclear extracts were prepared from J-27 T cells stimulated in the presence or absence of vitamin E. The NF-κB and AP-1 binding sites contained in the CD95L promoter were used as probes in an electrophoretic-mobility-shift-assay (EMSA). Stimulation of T cell with PMA and ionomycin induced binding of nuclear factors to the NF-κB and AP-1 sites of the CD95L promoter (Fig. 3A). These inducible binding complexes were either reduced or supershifted in the presence of antibodies against the subunits p50 and p65 of NF-κB or antibodies against the AP-1 family members Jun and Fos (Fig. 3B). […] As a control, the constitutive transcription factor […] was not affected by vitamin E (Fig. 3A). Experimental details are given in the legend to Figure 3.

CD95L promoter = assay: Luciferase reporter assay in transiently transfected J-27 T cells, 0.86-kb CD95L promoter; format: cell-based; settings: J-27 cells, 50 µM vitamin E 1 h, PMA/ionomycin 8 h (Fig. 4)
Source text: (§4) J-27 T cells were transiently transfected with the luciferase reporter constructs containing the 0.86-kb CD95L promoter (Li-Weber et al., Eur. J. Immunol. 30 (2000), 661), or three copies of the NF-κB binding sites at -530 or -50 region (Li-Weber et al., Eur. J. Immunol. 30 (2000), 661) or the AP-1 motif at +90 region (Eichhorst et al., Mol. Cell. Biol. 20 (2000), 7826) of the CD95L promoter as described in Li-Weber et al., 2000. All promoter constructs are described in the cited references. A luciferase reporter construct containing three copies of the Egr consensus binding site was used as a control (Li-Weber et al., Eur. J. Immunol. 29 (1999), 3017). After overnight culture, the cells were divided and treated with vitamin E (VE) (50 µM) or the vitamin E solvent ethanol for 1 h and than further cultured in the absence (empty box) or presence (black box) of PMA (10 ng/ml) and ionomycin (0.5 µM). Luciferase activity was determined after 8 h of stimulation. Results represent the average of three to five independent transfection experiments.
(§5) To further investigate the effect of vitamin E on CD95L expression, the CD95L promoter (-860 to +100) or a minimal TATA promoter containing three copies of either the NF-B or the AP1 sites of the CD95L promoter were linked to the luciferase reporter gene and these constructs were transiently transfected into J-27 T cells. […]

NF-κB [3] = assay: Luciferase reporter assay in J-27 T cells, three copies of the CD95L promoter NF-κB binding sites; format: cell-based; settings: J-27 cells, 50 µM vitamin E 1 h, PMA/ionomycin 8 h (Fig. 4)
Source text: as §4, §5

AP-1 [4] = assay: Luciferase reporter assay in J-27 T cells, three copies of the CD95L promoter AP-1 motif; format: cell-based; settings: J-27 cells, 50 µM vitamin E 1 h, PMA/ionomycin 8 h (Fig. 4)
Source text: as §4, §5

Egr binding site = assay: Luciferase reporter assay in J-27 T cells, three copies of the Egr consensus binding site (control); format: cell-based; settings: J-27 cells, 50 µM vitamin E 1 h, PMA/ionomycin 8 h, control (Fig. 4)
Source text: as §4, §5

CD95L mRNA = CD95L mRNA levels by RT-PCR in peripheral blood lymphocytes of HIV positive individuals; format: cell-based, human; settings: 25 µM vitamin E 1 h, α-CD3 12 h (Fig. 5)
Experimental: Freshly isolated peripheral blood lymphocytes from HIV positive individuals were treated without or with vitamin E (VE) (25 µM) for 1 h and than stimulated with plate bound α-CD3 ([…]) for 12 h. CD95L mRNA levels were examined by RT-PCR (Eichhorst et al., 2000). Results from 5 individuals are shown.
It was investigated whether vitamin E could block CD95L expression in the peripheral blood lymphocytes of HIV positive individuals. Peripheral blood lymphocytes from such individuals were subjected to analysis of the CD95L mRNA expression levels in the absence or the presence of vitamin E. Different levels of the CD95L mRNA expression were found in lymphocytes from different HIV patients examined. […] Experimental details are given in the legend to Figure 5.

[5] = system: peripheral blood lymphocytes of HIV positive individuals; assay: AICD of peripheral blood lymphocytes of HIV positive individuals stimulated with plate bound α-CD3; format: cell-based, human
Experimental: Peripheral blood lymphocytes from HIV positive individuals (n = 33 Patients) and uninfected donors (11 Donors) were stimulated with plate bound (α-CD3 (50 µg/ml) for 48 h. Apoptosis was assessed by a drop in the forward to side scatter profile of apoptotic in comparison to living cells. The mean difference between patients and uninfected individuals is -7.23. 95% confidence interval is -13.7, -2.12.
Freshly isolated blood lymphocytes from 31 HIV positive individuals were stimulated with plate bound α-CD3 in the absence or presence of either 50 µg/ml CD95-Fc or 25 µM vitamin E (VE) (added 1 h before stimulation). IgG-1 (50 µg/ml), Sigma (St. Louis, MO, USA) was used as control. Cell death was assessed after 48 h stimulation.
To determine if vitamin E could reduce depletion of T cells from HIV positive individuals next the effects of vitamin E on AICD in peripheral blood lymphocytes of such individuals were analyzed. […] As opposed to lymphocytes from healthy donors lymphocytes isolated from HIV-infected individuals were more susceptible to apoptosis (Fig. 6A). […] Experimental details are given in the legend to Figure 6.

## Cc1c(C)c2c(c(C)c1O)CC[C@@](C)(CCC[C@H](C)CCC[C@H](C)CCCC(C)C)O2 [vitamin E, α-tocopherol]
NF-κB [1]
  binding of NF-κB to its binding sites of the CD95L promoter (-530 and -50 region): prevented binding
AP-1 [2]
  binding of AP-1 to its binding site of the CD95L promoter (+90 region): prevented binding
NF-Y
  NF-Y binding (constitutive loading control): not affected
CD95L promoter
  luciferase expression driven by the CD95L promoter: greatly reduced
NF-κB [3]
  luciferase expression driven by the NF-κB site of the CD95L promoter: greatly reduced
AP-1 [4]
  luciferase expression driven by the AP-1 site of the CD95L promoter: greatly reduced
Egr binding site
  luciferase expression driven by the Egr binding site: did not affect
CD95L mRNA
  expression of CD95L mRNA: completely blocked in most patients
[5]; 31 HIV positive individuals, α-CD3, 25 µM vitamin E added 1 h before stimulation, 48 h (Fig. 6B)
  AICD: greatly reduced
[5]; HIV positive individuals, 25 µM vitamin E vs 50 µg/ml CD95-Fc (Fig. 6B)
  reduction of AICD compared with that obtained by CD95-Fc: even more pronounced
